From a compilation of properties of binary mixtures (doi:10.1051/jnwpu/20234130557)

Test: xn = mol fraction of the nth substance listed
Conditions: 298.15 K, 101.3 kPa

CCCC[n+]1cccc(C)c1.O=S(=O)([N-]S(=O)(=O)C(F)(F)F)C(F)(F)F + CC(C)O
Conditions | electrical conductivity [S/m]
x2 = 0.0802 | 0.334
x2 = 0.1045 | 0.41
x2 = 0.1234 | 0.462
x2 = 0.1455 | 0.511
x2 = 0.177 | 0.566
x2 = 0.2193 | 0.613
x2 = 0.2497 | 0.633
x2 = 0.4682 | 0.587
x2 = 0.6921 | 0.441
x2 = 0.9362 | 0.3

CC(C)O + CCCC[n+]1cccc(C)c1.O=S(=O)([N-]S(=O)(=O)C(F)(F)F)C(F)(F)F
Conditions | electrical conductivity [S/m]
x1 = 1 | 0.27

CCCC[n+]1cccc(C)c1.O=S(=O)([N-]S(=O)(=O)C(F)(F)F)C(F)(F)F + CCO
Conditions | electrical conductivity [S/m]
x2 = 0.2427 | 0.445
x2 = 0.5689 | 0.809
x2 = 0.7583 | 1.04
x2 = 0.8896 | 0.992
x2 = 0.9196 | 0.883
x2 = 0.9371 | 0.783

CCCC[n+]1cccc(C)c1.O=S(=O)([N-]S(=O)(=O)C(F)(F)F)C(F)(F)F + CO
Conditions | electrical conductivity [S/m]
x2 = 0 | 0.273
x2 = 0.2345 | 0.453
x2 = 0.5544 | 0.951
x2 = 0.7016 | 1.38
x2 = 0.8346 | 1.93
x2 = 0.882 | 2.1
x2 = 0.9199 | 2.13
